Source: ChEMBL document CHEMBL2203134, “Discovery of XL888: a novel tropane-derived small molecule inhibitor of HSP90” (Bioorg Med Chem Lett, 2012)
Values after ≈ are worked out from the molar mass of the structure shown. Values belong to the compound of their own block, whether it stands above or below them. Active and inactive are the calls of the source. The rule behind the calls is not given here.

How the values were obtained:
NCI-H1975 = assay: Antiproliferative activity against human NCI-H1975 cells overexpressing EGFR after 48 hrs by BrdU labeling assay; format: functional, cell-based; details: NCI-H1975, 48 h
[1] = Plasma concentration in mouse xenografted with human NCI-N87 cells at 100 mg/kg administered QD for 3 days measured 24 hrs post-last dose; format: ADME, organism-based; set-up: dose 100 mg/kg
Rattus norvegicus = assay: Dose normalized AUC in rat at 5 mg/kg, iv; format: ADME, organism-based; set-up: dose 5 mg/kg, route intravenous; details: in vivo
[2] = Half life in rat at 5 mg/kg, iv; format: ADME, organism-based; set-up: dose 5 mg/kg, route intravenous; details: in vivo
Plasma = assay: Plasma concentration in mouse xenografted with human NCI-N87 cells at 100 mg/kg administered QD for 3 days measured 96 hrs post-last dose; format: ADME, organism-based; set-up: dose 100 mg/kg; details: in vivo, BLD = below limit of detection
SK-MEL-28 = assay: Antiproliferative activity against human SK-MEL-28 cells overexpressing Braf after 48 hrs by BrdU labeling assay; format: functional, cell-based; details: SK-MEL-28, 48 h
Mus musculus [3] = assay: Inhibition of Hsp90 in human NCI-N87 cells xenografted in mouse assessed as Raf1 degradation at 100 mg/kg administered QD for 3 days measured after 8 hrs post-last dose relative to control; format: functional, organism-based; set-up: dose 100 mg/kg
Mus musculus [4] = assay: Inhibition of Hsp90 in human NCI-N87 cells xenografted in mouse assessed as Her2 degradation at 100 mg/kg administered QD for 3 days measured up to 48 hrs post-last dose relative to control; format: functional
Mus musculus [5] = assay: Inhibition of Hsp90 in human NCI-N87 cells xenografted in mouse assessed as Her2 degradation at 100 mg/kg administered QD for 3 days measured at 8 hrs post-last dose relative to control; format: functional
Heat shock protein HSP90 [6] = target: T1, Heat shock protein HSP90 (Homo sapiens, UniProt P07900+P08238); assay: Inhibition of Hsp90 in human NCI-N87 cells assessed as Her2 degradation after 24 hrs by Western blot analysis; format: cell-based
NCI-N87 [7] = assay: Antitumor activity against human NCI-N87 cells xenografted in mouse assessed as tumor growth inhibition at 60 mg/kg administered QD relative to control; format: functional; details: read-out: TGI
Mus musculus [8] = assay: Inhibition of Hsp90 in human NCI-N87 cells xenografted in mouse assessed as Raf1 degradation at 100 mg/kg administered QD for 3 days measured at 8 hrs post-last dose relative to control; format: functional
[9] = Plasma concentration in mouse xenografted with human NCI-N87 cells at 100 mg/kg administered QD for 3 days measured 8 hrs post-last dose; format: ADME, organism-based; set-up: dose 100 mg/kg
A549 = assay: Antiproliferative activity against human A549 cells overexpressing Kras after 48 hrs by BrdU labeling assay; format: functional, cell-based; details: A549, 48 h
Mus musculus [10] = assay: Inhibition of Hsp90 in human NCI-N87 cells xenografted in mouse assessed as Hsp70 upregulation at 100 mg/kg administered QD for 3 days measured at 8 hrs post-last dose relative to control; format: functional
NCI-N87 [11] = assay: Antitumor activity against human NCI-N87 cells xenografted in mouse assessed as tumor growth inhibition at 100 mg/kg administered QD for 3 days in a week relative to control; format: functional; details: NCI-N87, 72 h, read-out: TGI
HN5 = assay: Antiproliferative activity against human HN5 cells overexpressing EGFR after 48 hrs by BrdU labeling assay; format: functional, cell-based; details: HN5, 48 h
[12] = Oral bioavailability in rat at 5 mg/kg; format: ADME, organism-based; details: in vivo
[13] = Clearance in rat at 5 mg/kg, iv; format: ADME, organism-based; set-up: dose 5 mg/kg, route intravenous; details: in vivo
NCI-N87 [14] = assay: Antitumor activity against human NCI-N87 cells xenografted in mouse assessed as tumor regression at 100 mg/kg administered QD for 3 days in a week relative to control; format: functional
BT-474 = assay: Antiproliferative activity against human BT474 cells overexpressing Her2 after 48 hrs by BrdU labeling assay; format: functional, cell-based; details: BT-474, 48 h
MCF7 = assay: Antiproliferative activity against human MCF7 cells overexpressing PI3K after 48 hrs by BrdU labeling assay; format: functional, cell-based; details: MCF7, 48 h
[15] = Drug uptake in human NCI-N87 tumor xenografted in mouse at 100 mg/kg administered QD for 3 days measured at 24 hrs post-last dose; format: ADME, organism-based, Neoplasm; set-up: dose 100 mg/kg; details: human NCI-N87 tumor xenograft, read-out: Drug uptake
COLO 205 = assay: Antiproliferative activity against human COLO205 cells overexpressing Braf after 48 hrs by BrdU labeling assay; format: functional, cell-based; details: COLO 205, 48 h
MKN-45 = assay: Antiproliferative activity against human MKN45 cells overexpressing MET after 48 hrs by BrdU labeling assay; format: functional, cell-based; details: MKN-45, 48 h
[16] = Drug uptake in human NCI-N87 tumor xenografted in mouse at 100 mg/kg administered QD for 3 days measured at 96 hrs post-last dose; format: ADME, organism-based, Neoplasm; set-up: dose 100 mg/kg; details: human NCI-N87 tumor xenograft, read-out: Drug uptake
MDA-MB-453 = assay: Antiproliferative activity against human MDA-MB-453 cells overexpressing Her2 after 48 hrs by BrdU labeling assay; format: functional, cell-based; details: MDA-MB-453, 48 h
[17] = Drug uptake in human NCI-N87 tumor xenografted in mouse at 100 mg/kg administered QD for 3 days measured at 8 hrs post-last dose; format: ADME, organism-based, Neoplasm; set-up: dose 100 mg/kg; details: human NCI-N87 tumor xenograft, read-out: Drug uptake
NCI-N87 [18] = assay: Antiproliferative activity against human NCI-N87 cells overexpressing Her2 after 48 hrs by BrdU labeling assay; format: functional, cell-based; details: NCI-N87, 48 h
Mus musculus [19] = assay: Inhibition of Hsp90 in human NCI-N87 cells xenografted in mouse assessed as Hsp70 upregulation at 100 mg/kg administered QD for 3 days measured at 96 hrs post-last dose relative to control; format: functional
[20] = Apparent permeability across MDCK cells; format: ADME, cell-based, Canis lupus familiaris; details: dog
Mus musculus [21] = assay: Inhibition of Hsp90 in human COLO205 cells xenografted in mouse assessed as Her2 degradation at 100 mg/kg administered QD for 2 days measured 8 hrs post-last dose; format: functional; details: COLO 205
Heat shock protein HSP90 [22] = target: T1, Heat shock protein HSP90; assay: Inhibition of Hsp90 in human A549 cells assessed as Raf1 degradation after 24 hrs by Western blot analysis; format: cell-based
Mus musculus [23] = assay: Inhibition of Hsp90 in human COLO205 cells xenografted in mouse assessed as Raf1 degradation at 100 mg/kg administered QD for 2 days measured 8 hrs post-last dose; format: functional; details: COLO 205
[24] = Drug metabolism in mouse liver microsomes at 15 uM after 30 mins; format: ADME, Microsome; details: read-out: Drug metabolism
Heat shock protein HSP90 [25] = target: T1, Heat shock protein HSP90; assay: Displacement of biotinylated geldanamycin from human His-tagged Hsp90 by TR-FRET assay; format: protein assay
[26] = Drug uptake in human COLO205 tumor xenografted in mouse at 100 mg/kg administered QD for 2 days measured 8 hrs post-last dose; format: ADME, organism-based, Neoplasm; set-up: dose 100 mg/kg; details: human COLO205 tumor xenograft, read-out: Drug uptake
[27] = Drug metabolism in human liver microsomes at 15 uM after 30 mins; format: ADME, Microsome; details: read-out: Drug metabolism
[28] = Kinetic solubility of the compound; format: physicochemical; details: read-out: Kinetic_solubility

IC50 (NCI-H1975): 0.7 nM
concentration at 24 h [1]: 70 nM
AUC/dose (Rattus norvegicus): 2.23 µM·kg·h/mg
half-life [2]: 1.4 h
Cp (Plasma): BLD
IC50 (SK-MEL-28): 0.3 nM
IC50 (Heat shock protein HSP90 [6]): 56 nM
concentration at 8 h [9]: 2260 nM
IC50 (A549): 4.3 nM
bioavailability [12]: 30%
clearance [13]: 15.3 mL/min/kg
IC50 (BT-474): 0.1 nM
IC50 (MCF7): 4.1 nM
concentration at 24 h [15]: 2860 nM
IC50 (COLO 205): 11.6 nM
IC50 (MKN-45): 45.5 nM
concentration at 96 h [16]: 1820 nM
IC50 (MDA-MB-453): 16 nM
concentration at 8 h [17]: 5390 nM
Papp [20]: 32 ×10⁻⁶ cm/s
SMILES: CC[C@@H](C)Nc1cc(C(=O)NC2CC3CCC(C2)N3c2ccc(C(=O)C3CC3)cn2)c(C)cc1C(N)=O (some centres undefined)
inhibition (Mus musculus [3]): inactive
inhibition in vivo at 100 mg/kg (Mus musculus [4]): 75%
inhibition in vivo at 100 mg/kg (Mus musculus [5]): 92%
inhibition in vivo at 60 mg/kg (NCI-N87 [7]): 100%
inhibition in vivo at 100 mg/kg (Mus musculus [8]): 56%
inhibition in vivo at 100 mg/kg (Mus musculus [10]): 234%
inhibition in vivo at 100 mg/kg (NCI-N87 [11]): > 100%
IC50 (HN5): 5.5 nM
Activity (NCI-N87 [14]): 21%
IC50 (NCI-N87 [18]): 21.8 nM
inhibition in vivo at 100 mg/kg (Mus musculus [19]): 343%

SMILES: COc1cccc(C(=O)NC2CC3CCC(C2)N3c2ccc(C(N)=O)cn2)c1C (centres undefined)
AUC/dose (Rattus norvegicus): 6.3 µM·kg·h/mg
half-life [2]: 2.1 h
inhibition in vivo at 100 mg/kg (Mus musculus [21]): 63%
IC50 (Heat shock protein HSP90 [22]): 3800 nM
inhibition (Mus musculus [23]): inactive
bioavailability [12]: 81%
metabolised at 0.5 h, 15 µM [24]: 29%
clearance [13]: 6.15 mL/min/kg
IC50 (Heat shock protein HSP90 [25]): 641 nM
concentration at 8 h [26]: 6700 nM
metabolised at 0.5 h, 15 µM [27]: 21%
solubility kinetic [28]: 470 µM (≈ 185 µg/mL)
Papp [20]: 13.3 ×10⁻⁶ cm/s
